In patent publication US10669313B2, “Multitarget-directed bio-inorganic hybrid structure” (INDUSTRY-ACADEMIC COOPERATION FOUNDATION, YONSEI UNIVERSITY, priority 2016, dated 2020):

Tests used:
[1] = system: Rev-mediated RRE export (RRE: Rev: Crm1 interactions); assay: Nucleocytoplasmic export assay (CAT assay) based on plasmid pDM128 in HeLa cells; format: cell-based, HIV-1; details: HeLa cells co-transfected with pDM128 and pSV2-Rev
Method: Lastly, multitarget-binding and inhibitory capabilities of hetero-SPCHs were examined. To evaluate the inhibition of Rev-mediated RRE export, a nucleocytoplasmic export assay based on plasmid pDM128 expressing RRE (see FIG. 23) was performed.
Referring to FIG. 24, as shown in a chloramphenicol acetyltransferase (CAT) assay (lane 3), co-transfection of pDM128 with pSV2-Rev (Rev-expressing plasmid) in HeLa cells enables an effective nucleocytoplasmic export of RRE RNA. In contrast, negligible CAT activity was observed when the cells were co-transfected with pBluescript KS(+) (negative control plasmid) (lane 2).
In addition, to confirm whether nucleocytoplasmic export mediated by RRE: Rev: Crm1 interactions could be inhibited by peptide-CNT hybrids, the cells were treated with hetero-(A&N)-SPCHs.
HeLa cells were incubated under 5% CO2 at 37° C. in DMEM supplemented with 10% FBS and 1% pen/strep. 4×10^4 of the incubated cells were distributed into a 48-well plate, and then incubated under 5% CO2 at 37° C. overnight. Subsequently, the resulting cells were washed with DPBS, and then a plasmid (total 250 ng; pDM128, pBluescript II KS (+), pSV2-Rev) complexed with 0.7 μL of a jetPEI DNA transfection reagent was added to each well. […]
The samples were normalized with the concentrations of proteins measured by a BCA assay (BCA protein assay kit; Pierce, USA). […]

[2] = system: cyc-ARM peptide on SWCNT (homo-ARM-SPCH) (HIV-1 (Rev ARM, synthetic)); assay: competition; details: hybrid concentration for complete exchange of 6 uM Rev from 100 nM RRE by EMSA; stated about 10,000 times stronger RRE binding than Rev

CCC(=C/[C@H](C)C/C=C/C(C)=C/[C@@H](C)C(=O)[C@@H](C)[C@H](O)[C@@H](C)C/C(C)=C/C(=O)O)/C=C/[C@@H]1OC(=O)C=C[C@@H]1C [LMB, leptomycin B]
concentration required to completely inhibit the RRE export [1]: 100 nM

GGGCGAAUUGGAGCUCGCUAUGUUCCUUGGGUUCUUGGGAGCAGCAGGAAGCACUAUGGGCGCAGUGUCAUUGACGCUGACGGUACAGGCCAGACAAUUAUUGUCUGGUAUAGUGCAACAGCAGAACAAUUUGCUGAGGGCUAUUGAGGCGCAACAACAUCUGUUGCAACUCACAGUCUGGGGCAUCAAGCAGCUCCAGGCAAGAGUCCUGGCUGUGGAAAGAUACCUAAGGGAUCAACAGCUCCUAGGGAUG [full-length RRE RNA transcript (253 nt)]
binding [2]: 600 pM
